In patent publication US8404738B2 (Hoffmann-La Roche Inc., priority 2011, dated 2013):

Legend:
[1] = target: T1, HDAC6 (Homo sapiens, UniProt Q9UBN7); assay: Tubulin acetylation cytoblot assay (A549 cells); assay type: cell-based; conditions: 17-18 h incubation, tubulin acetylation as marker of HDAC6 inhibition, read-out: Tub-Ac EC50
T1 construct: endogenous in cells; host or cells: A549 cells
T1 sequence (Q9UBN7 1-1215): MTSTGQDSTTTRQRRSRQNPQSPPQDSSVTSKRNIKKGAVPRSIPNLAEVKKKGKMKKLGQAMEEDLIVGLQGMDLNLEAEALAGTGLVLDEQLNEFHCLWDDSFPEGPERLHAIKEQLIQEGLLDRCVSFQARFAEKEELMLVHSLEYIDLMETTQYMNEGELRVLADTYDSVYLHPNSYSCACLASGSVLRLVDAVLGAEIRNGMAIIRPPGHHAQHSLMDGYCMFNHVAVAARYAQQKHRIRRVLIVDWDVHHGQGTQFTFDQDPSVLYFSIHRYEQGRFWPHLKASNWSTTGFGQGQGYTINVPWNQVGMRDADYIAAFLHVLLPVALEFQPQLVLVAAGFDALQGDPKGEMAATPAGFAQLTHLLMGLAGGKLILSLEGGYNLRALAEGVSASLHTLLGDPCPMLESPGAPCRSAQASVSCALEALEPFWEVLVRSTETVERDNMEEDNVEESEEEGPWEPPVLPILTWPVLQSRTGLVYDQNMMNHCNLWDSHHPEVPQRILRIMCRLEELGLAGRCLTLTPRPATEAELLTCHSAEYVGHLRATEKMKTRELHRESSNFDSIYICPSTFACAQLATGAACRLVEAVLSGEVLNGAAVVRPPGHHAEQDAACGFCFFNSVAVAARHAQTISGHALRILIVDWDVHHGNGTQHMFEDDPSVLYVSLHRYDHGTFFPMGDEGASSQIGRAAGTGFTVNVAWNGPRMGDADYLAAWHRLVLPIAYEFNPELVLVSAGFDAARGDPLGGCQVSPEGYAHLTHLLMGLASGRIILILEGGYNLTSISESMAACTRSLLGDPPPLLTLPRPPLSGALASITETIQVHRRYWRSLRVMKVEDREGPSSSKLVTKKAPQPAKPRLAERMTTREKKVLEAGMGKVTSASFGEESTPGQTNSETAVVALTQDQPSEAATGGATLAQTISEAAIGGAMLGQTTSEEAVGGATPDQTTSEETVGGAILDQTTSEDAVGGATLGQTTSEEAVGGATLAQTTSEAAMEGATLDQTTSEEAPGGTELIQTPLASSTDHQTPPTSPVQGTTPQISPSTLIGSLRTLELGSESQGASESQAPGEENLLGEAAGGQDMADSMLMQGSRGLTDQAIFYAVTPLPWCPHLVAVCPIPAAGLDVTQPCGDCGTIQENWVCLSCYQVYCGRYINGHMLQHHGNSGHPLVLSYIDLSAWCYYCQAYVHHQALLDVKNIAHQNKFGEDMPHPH
Procedure, shortened: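 Cells were exposed to compound for 17-18 h, then fixed with formaldehyde and permeabilized with cold MeOH. They were probed for 4 h at 4° C with anti-acetylated tubulin plus HRP anti-mouse IgG (each 1:750), and read by ECL luminescence. EC50 values came from curves normalized to top and bottom controls.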

[2] = test system: p21 promoter-luciferase construct; assay: p21 reporter gene induction (HeLa cells, p21 promoter-luciferase construct); conditions: for p21 RP3: relative gene level of p21 compared to MS275 at 3 μM; for p21 RP10: relative level of p21 compared to MS275 at 10 μM; for p21 RP30: relative level of p21 compared to MS275 at 30 μM;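 on all read-outs here: transfected HeLa cells exposed to compound for 15 h, luciferase luminescence read from lysates, p21 promoter lacks p53 site, proxy for cellular HDAC1/2/3 inhibition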
Method: As a surrogate for in-cell HDAC1/2/3 inhibition, p21 induction was used as a counterscreen to evaluate the selectivity of the compounds in the present invention toward HDAC6 or HDAC8.
The novel compounds of the present invention were tested for their ability to induce p21 gene expression using a reporter gene assay involving HeLa cells transfected with a p21 promoter-luciferase construct. The p21 promoter contained the Sp1/Sp3 binding site for HDAC but not the upstream p53 binding site. Briefly, the day before transfection, HeLa cells were seeded at 11,000 cells/well in a 96-well culture plate and incubated at 37° C. in 5% CO2 overnight. A transfection media was prepared prior to transfection according to the following procedure: (1) 5 μl serum-free DMEM, 0.15 μl Fugene 6 reagent, 40 ng p21-luc, 10 ng GFP were mixed gently and incubated at rt for 30 minutes; (2), then 98 μl DMEM (with 10% FBS, 1% penicillin and streptomycin) was added to the DNA: Fugene 6 reagent complex and mixed gently. For transfection, the medium was removed and replaced with 100 μl/well transfection media which was prepared according to the procedure above. After incubating the cells for 24 hours at 37° C. in 5% CO2, fresh media and test compounds were added to the wells and the cells further incubated for 15 hours at 37° C. in 5% CO2. Cells were lysed by adding 80 μl/well of a cell culture lysis reagent (Promega). 50 μl of each lysate was taken for GFP detection using an excitation wavelength of 486 nm and detection at 527 nm. 100 μl luciferase assay reagent (Promega) was then added to every 20 μl cell lysate for luminometer detection.

[3] = target: T2, recombinant human HDAC8 (Homo sapiens, UniProt Q9BY41); assay: HDAC8 inhibition: recombinant HDAC8 fluorometric assay; assay type: biochemical; conditions: recombinant human HDAC8, substrate Ac-Arg-His-Lys-Lys(ε-acetyl)-AMC; read-out: HDAC8 IC50
T2 construct: made in house; host or cells: insect cells
T2 sequence (Q9BY41 1-377): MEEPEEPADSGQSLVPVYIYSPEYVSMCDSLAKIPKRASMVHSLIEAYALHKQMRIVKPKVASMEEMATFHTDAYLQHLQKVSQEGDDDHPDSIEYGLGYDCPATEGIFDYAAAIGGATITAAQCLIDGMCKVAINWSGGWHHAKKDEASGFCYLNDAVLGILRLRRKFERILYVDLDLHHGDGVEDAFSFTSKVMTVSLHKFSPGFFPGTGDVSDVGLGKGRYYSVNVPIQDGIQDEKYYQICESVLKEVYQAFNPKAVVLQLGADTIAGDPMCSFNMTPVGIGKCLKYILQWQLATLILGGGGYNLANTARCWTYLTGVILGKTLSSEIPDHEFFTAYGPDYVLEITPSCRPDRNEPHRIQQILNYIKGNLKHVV
Procedure, shortened: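 Recombinant human HDAC8 from insect cells was preincubated with compound for 15 min at rt, then given Ac-Arg-His-Lys-Lys(ε-acetyl)-AMC substrate for 30 min at rt. IC50 came from normalized percent inhibition with curve fitting.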

Row | EC50 [1] [nM] | IC50 [3] [nM] | SMILES | p21 RP3 [2] | p21 RP10 [2] | p21 RP30 [2]
1 | 13100 | 570 | O=C(NO)c1ccc(NC2CCN(c3cccc4cccnc34)C2=O)cc1 (stereo not drawn) [Example 39, N-Hydroxy-4-(2-oxo-1-quinolin-8-yl-pyrrolidin-3-ylamino)-benzamide] | 0.29 | 0.09 | 0.20
2 | 1310 | 510 | O=C(NO)c1ccc(NC2CCN(c3cccc4ncccc34)C2=O)cc1 (stereo not drawn) [Example 40, N-Hydroxy-4-(2-oxo-1-quinolin-5-yl-pyrrolidin-3-ylamino)-benzamide] | 0.25 | 0.26 | 0.21
3 | 5150 | 840 | O=C(NO)c1ccc(NC2CCN(C3CCCCC3)C2=O)cc1 (stereo not drawn) [Example 41, 4-(1-Cyclohexyl-2-oxo-pyrrolidin-3-ylamino)-N-hydroxy-benzamide] | 0.05 | 0.02 | 0.02
4 | 6310 | 700 | C[C@H](c1ccccc1)N1CCC(Nc2ccc(C(=O)NO)cc2)C1=O (stereo partly drawn) [Example 44] | −0.10 | 0.03 | 0.10
5 | 8300 | 650 | C[C@H](c1ccccc1)N1CCC(Nc2ccc(C(=O)NO)cc2)C1=O (stereo partly drawn) [Example 45] | −0.19 | 0.02 | 0.13
6 | 4600 | 680 | CC(C)(c1ccccc1Cl)N1CCC(Nc2ccc(C(=O)NO)cc2)C1=O (stereo not drawn) [Example 48, 4-{1-[1-(2-Chloro-phenyl)-1-methyl-ethyl]-2-oxo-pyrrolidin-3-ylamino}-N-hydroxy-benzamide] | 0.24 | 0.08 | 0.23
7 | 9860 | 490 | CC(C)(c1cccc(Cl)c1)N1CCC(Nc2ccc(C(=O)NO)cc2)C1=O (stereo not drawn) [Example 49, 4-{1-[1-(3-Chloro-phenyl)-1-methyl-ethyl]-2-oxo-pyrrolidin-3-ylamino}-N-hydroxy-benzamide] | 0.41 | 0.50 | 0.85
8 | 8620 | 670 | CC(C)(c1ccc(Cl)cc1)N1CCC(Nc2ccc(C(=O)NO)cc2)C1=O (stereo not drawn) [Example 50, 4-{1-[1-(4-Chloro-phenyl)-1-methyl-ethyl]-2-oxo-pyrrolidin-3-ylamino}-N-hydroxy-benzamide] | 0.17 | 0.17 | 0.53
9 | 8990 | 910 | CC(C)(c1ccc(-c2ccccc2)cc1)N1CCC(Nc2ccc(C(=O)NO)cc2)C1=O (stereo not drawn) [Example 51, 4-[1-(1-Biphenyl-4-yl-1-methyl-ethyl)-2-oxo-pyrrolidin-3-ylamino]-N-hydroxy-benzamide] | −0.14 | 0.60 | 0.38
10 | 2820 | 1050 | CC(C)(c1cccc2ccccc12)N1CCC(Nc2ccc(C(=O)NO)cc2)C1=O (stereo not drawn) [Example 52, N-Hydroxy-4-[1-(1-methyl-1-naphthalen-1-yl-ethyl)-2-oxo-pyrrolidin-3-ylamino]-benzamide] | 0.14 | 0.53 | 0.58
11 | 3320 | 380 | CC(C)(c1ccc2ccccc2c1)N1CCC(Nc2ccc(C(=O)NO)cc2)C1=O (stereo not drawn) [Example 53, N-Hydroxy-4-[1-(1-methyl-1-naphthalen-2-yl-ethyl)-2-oxo-pyrrolidin-3-ylamino]-benzamide] | 2.37 | 1.21 | 0.13
12 | 4750 | 820 | O=C(NO)c1ccc(NC2CCN(C3(c4ccccc4)CCCC3)C2=O)cc1 (stereo not drawn) [Example 55, N-Hydroxy-4-[2-oxo-1-(1-phenyl-cyclopentyl)-pyrrolidin-3-ylamino]-benzamide] | 0.43 | 0.20 | 0.50
13 | 2820 | 1110 | O=C(NO)c1ccc(NC2CCN(C3(c4ccccc4)CCCCC3)C2=O)cc1 (stereo not drawn) [Example 56, N-Hydroxy-4-[2-oxo-1-(1-phenyl-cyclohexyl)-pyrrolidin-3-ylamino]-benzamide] | 0.37 | 0.07 | 0.14
14 | 1000 | 910 | CC1(Nc2ccc(C(=O)NO)cc2)CCN(c2cccc(F)c2)C1=O (stereo not drawn) [Example 58, 4-[1-(3-Fluoro-phenyl)-3-methyl-2-oxo-pyrrolidin-3-ylamino]-N-hydroxy-benzamide] | 0.50 | 0.13 | 0.07
15 | 300 | 160 | CC1(Nc2ccc(C(=O)NO)cc2)CCN(c2cccc(Cl)c2)C1=O (stereo not drawn) [Example 59, 4-[1-(3-Chloro-phenyl)-3-methyl-2-oxo-pyrrolidin-3-ylamino]-N-hydroxy-benzamide] | 0.23 | 0.22 | 0.24
16 | 8250 | 1420 | CC1(Nc2ccc(C(=O)NO)cc2)CCN(c2cnc3ccccc3c2)C1=O (stereo not drawn) [Example 61, N-Hydroxy-4-(3-methyl-2-oxo-1-quinolin-3-yl-pyrrolidin-3-ylamino)-benzamide] | 0.46 | 0.09 | 0.17
17 | 1930 | 710 | CC1(Nc2ccc(C(=O)NO)cc2)CCN(c2cccc3cccnc23)C1=O (stereo not drawn) [Example 62, N-Hydroxy-4-(3-methyl-2-oxo-1-quinolin-8-yl-pyrrolidin-3-ylamino)-benzamide] | 0.55 | 0.11 | 0.20

Row | SMILES | EC50 [1] [nM] | IC50 [3] [nM] | p21 RP3 [2] | p21 RP10 [2] | p21 RP30 [2]
18 | O=C(NO)c1ccc(NC2CCN(c3ccc4ccccc4c3)C2=O)cc1 (stereo not drawn) [Example 38, N-Hydroxy-4-(1-naphthalen-2-yl-2-oxo-pyrrolidin-3-ylamino)-benzamide] | 1060 | 1500 | 0.50 | 0.02 | −0.02
19 | O=C(NO)c1ccc(NC2CCN(Cc3ccccc3)C2=O)cc1 (stereo not drawn) [Example 42] | 11400 | 650 | 0.02 | 0.09 | 0.34
20 | CC1(Nc2ccc(C(=O)NO)cc2)CCN(c2ccccc2)C1=O (stereo not drawn) [Example 57, N-Hydroxy-4-(3-methyl-2-oxo-1-phenyl-pyrrolidin-3-ylamino)-benzamide] | 2640 | 2970 | 0.05 | 0.03 | 0.01
21 | CC1(Nc2ccc(C(=O)NO)cc2)CCN(c2ccc3ncccc3c2)C1=O (stereo not drawn) [Example 63, N-Hydroxy-4-(3-methyl-2-oxo-1-quinolin-6-yl-pyrrolidin-3-ylamino)-benzamide] | 360 | 890 | 0.47 | 0.15 | 0.22
